Reference: ChEMBL document CHEMBL5661943, “ASAP - In vitro antiviral effect” (2024)

Tests used:
Zika virus [1] = assay: Functional CPE-based assay to measure dose dependent changes in antiviral-drug inhibitory efficacy against Zika virus MR766 in Vero E6 miRFP670 cells. Cells are treated with antiviral candidates that are serially diluted. EC50 is reported via analysis of MTS assay as a readout of CPE. The assay has been performed by KU Leuven.; type: organism-based, Chlorocebus sabaeus, Vero C1008; details: for EC90: Baseline response 0 %, Maximum response 100 %
Zika virus [2] = assay: EC50 is reported via analysis of immunofluorescence staining. The assay has been performed by Icahn School of Medicine at Mount Sinai.; type: functional, organism-based, Chlorocebus sabaeus, VeroE6/TMPRSS2; details: Baseline response 0 %, P-gp concentration 2 uM, P-gp inhibitor Elacidar
Zika virus [3] = assay: Functional CPE-based assay to measure dose dependent changes in antiviral-drug inhibitory efficacy against Zika virus MR766 in Vero E6 miRFP670 cells (cotreated with P-gp inhibitor, CP100356). Cells are treated with antiviral candidates that are serially diluted. EC50 is reported via analysis of MTS assay as a readout of CPE. The assay has been performed by KU Leuven.; type: organism-based, Chlorocebus sabaeus, Vero C1008; details: Baseline response 0 %, Maximum response 100 %, P-gp concentration 500 nM, P-gp inhibitor CP100356
dengue virus type 2 [4] = assay: Functional immunofluorescence assay to measure dose dependent changes in antiviral-drug inhibitory efficacy against Dengue virus type 2 Thailand/16681/84 in Vero E6/TMPRSS2 cells (cotreated with P-gp inhibitor, Elacridar). Cells are treated with antiviral candidates that are serially diluted, following infection, cells are fixed. EC50 is reported via analysis of immunofluorescence staining. The assay has been performed by Icahn School of Medicine at Mount Sinai.; type: organism-based, Chlorocebus sabaeus, VeroE6/TMPRSS2; details: Baseline response 0 %, Maximum response 100 %, P-gp concentration 2 uM, P-gp inhibitor Elacidar
dengue virus type 2 [5] = assay: Functional assay to measure dose dependent changes in antiviral-drug inhibitory efficacy against Dengue virus type 2 New Guinea C in Vero E6 miRFP670 cells (cotreated with P-gp inhibitor, CP100356). Cells are treated with antiviral candidates that are serially diluted, following infection, cells are fixed. EC50 is reported via analysis of fluorescence intensity using high-content imager. The …; type: organism-based, Chlorocebus sabaeus, Vero C1008; details: Baseline response 0 %, Maximum response 100 %, P-gp concentration 500 nM, P-gp inhibitor CP100356

## C#C[C@@]1(O)[C@H](O)[C@@H](CO)O[C@H]1n1ccc2c(N)ncnc21
Zika virus [1]; EC90 CI (lower) 0.609 uM, EC90 CI (upper) 2.047 uM, Hill slope 2.369, Maximum measured 114.788 %, Minimum measured 45.711 %, R squared 0.779
  EC90: 1120 nM
Zika virus [1]; EC90 CI (lower) 0.671 uM, EC90 CI (upper) 2.798 uM, Hill slope 1.934, Maximum measured 102.059 %, Minimum measured 46.421 %, R squared 0.63
  EC90: 1370 nM
Zika virus [1]; EC90 CI (lower) 0.837 uM, EC90 CI (upper) 2.594 uM, Hill slope 2.016, Maximum measured 108.843 %, Minimum measured 40.384 %, R squared 0.792
  EC90: 1470 nM
Zika virus [1]; EC90 CI (lower) 0.846 uM, EC90 CI (upper) 2.023 uM, Hill slope 2.239, Maximum measured 110.829 %, Minimum measured 40.755 %, R squared 0.884
  EC90: 1310 nM
Zika virus [1]; EC90 CI (lower) 0.889 uM, EC90 CI (upper) 2.697 uM, Hill slope 2.299, Maximum measured 106.469 %, Minimum measured 29.185 %, R squared 0.791
  EC90: 1550 nM
Zika virus [1]; EC90 CI (lower) 1.189 uM, EC90 CI (upper) 2.428 uM, Hill slope 2.067, Maximum measured 109.57 %, Minimum measured 34.796 %, R squared 0.858
  EC90: 1700 nM
Zika virus [1]; EC90 CI (lower) 1.447 uM, EC90 CI (upper) 5.92 uM, Hill slope 1.376, Maximum measured 98.736 %, Minimum measured 36.6 %, R squared 0.773
  EC90: 2930 nM
Zika virus [1]; EC90 CI (lower) 2.603 uM, EC90 CI (upper) 13.676 uM, Hill slope 1.372, Maximum measured 98.49 %, Minimum measured 18.919 %, R squared 0.79
  EC90: 5970 nM
Zika virus [1]; vero c1008
  EC50: 587 nM [middle of 8 runs]
Zika virus [2]; EC90 CI (lower) 0.001 uM, EC90 CI (upper) 0.006 uM, Hill slope -0.989, Maximum measured 96.238 %, Maximum response 100 %, Minimum measured 0.519 %, R squared 0.897
  EC90: 224 nM
Zika virus [2]; EC90 CI (lower) 0.002 uM, EC90 CI (upper) 0.011 uM, Hill slope -0.683, Maximum measured 98.748 %, Maximum response 100 %, Minimum measured 0.794 %, R squared 0.927
  EC90: 2880 nM
Zika virus [2]; EC90 CI (lower) 0.002 uM, EC90 CI (upper) 0.016 uM, Hill slope -0.839, Maximum measured 81.893 %, Maximum response 100 %, Minimum measured 1.248 %, R squared 0.884
  EC90: 1180 nM
Zika virus [2]; EC90 CI (lower) 0.007 uM, EC90 CI (upper) 0.18 uM, Hill slope -1.662, Maximum measured 169.951 %, Maximum response 100 %, Minimum measured 5.93 %, R squared 0.731
  EC90: 510 nM
Zika virus [2]; EC90 CI (lower) 0.03 uM, EC90 CI (upper) 0.119 uM, Hill slope -3.091, Maximum measured 117.52 %, Maximum response 100 %, Minimum measured 1.1 %, R squared 0.948
  EC90: 247 nM
Zika virus [2]; EC90 CI (lower) 0.051 uM, EC90 CI (upper) 0.519 uM, Hill slope -4.939, Maximum measured 48.685 %, Maximum response 50 %, Minimum measured […], R squared 0.852
  EC90: 395 nM
Zika virus [2]; EC90 CI (lower) 0.102 uM, EC90 CI (upper) 0.325 uM, Hill slope -1.64, Maximum measured 123.086 %, Maximum response 100 %, Minimum measured 10.677 %, R squared 0.94
  EC90: 2650 nM
Zika virus [2]; Hill slope -0.492, Maximum measured 74.448 %, Maximum response 100 %, Minimum measured 1.207 %, R squared 0.744
  EC90: > 10000 nM
Zika virus [3]; EC90 CI (lower) 0.21 uM, EC90 CI (upper) 1.971 uM, Hill slope 4.843, Maximum measured 127.846 %, Minimum measured 44.624 %, R squared 0.529
  EC90: 644 nM
Zika virus [3]; EC90 CI (lower) 0.347 uM, EC90 CI (upper) 1.935 uM, Hill slope 4.005, Maximum measured 138.155 %, Minimum measured 32.327 %, R squared 0.565
  EC90: 819 nM
Zika virus [3]; EC90 CI (lower) 0.485 uM, EC90 CI (upper) 1.678 uM, Hill slope 2.708, Maximum measured 115.594 %, Minimum measured 50.299 %, R squared 0.731
  EC90: 902 nM
Zika virus [3]; EC90 CI (lower) 0.573 uM, EC90 CI (upper) 1.709 uM, Hill slope 2.773, Maximum measured 114.82 %, Minimum measured 43.135 %, R squared 0.56
  EC90: 990 nM
Zika virus [3]; EC90 CI (lower) 0.644 uM, EC90 CI (upper) 1.624 uM, Hill slope 2.782, Maximum measured 120.433 %, Minimum measured 40.681 %, R squared 0.677
  EC90: 1020 nM
Zika virus [3]; EC90 CI (lower) 0.736 uM, EC90 CI (upper) 2.012 uM, Hill slope 2.837, Maximum measured 119.107 %, Minimum measured 28.833 %, R squared 0.835
  EC90: 1220 nM
Zika virus [3]; EC90 CI (lower) 0.778 uM, EC90 CI (upper) 1.421 uM, Hill slope 2.877, Maximum measured 117.074 %, Minimum measured 36.973 %, R squared 0.767
  EC90: 1050 nM
Zika virus [3]; EC90 CI (lower) 1.744 uM, EC90 CI (upper) 2.505 uM, Hill slope 3.857, Maximum measured 108.608 %, Minimum measured 1.409 %, R squared 0.98
  EC90: 2090 nM
Zika virus [3]; Hill slope -0.24, Maximum measured 59.299 %, Minimum measured 14.65 %, R squared 0.03
  EC90: < 391 nM
Dengue virus type 2 [4]; EC90 CI (lower) 0.185 uM, EC90 CI (upper) 0.987 uM, Hill slope -1.843, Maximum measured 114.823 %, Minimum measured 1.4 %, R squared 0.854
  EC90: 4.64 µM
Dengue virus type 2 [4]; EC90 CI (lower) […] uM, EC90 CI (upper) 0.029 uM, Hill slope -0.795, Maximum measured 131.547 %, Minimum measured 0.898 %, R squared 0.782
  EC90: 1.45 µM
Dengue virus type 2 [4]; EC90 CI (lower) […] uM, EC90 CI (upper) 0.107 uM, Hill slope -1.582, Maximum measured 108.655 %, Minimum measured 1.401 %, R squared 0.84
  EC90: 0.595 µM
Dengue virus type 2 [4]; EC90 CI (lower) […] uM, EC90 CI (upper) 0.213 uM, Hill slope -0.879, Maximum measured 109.405 %, Minimum measured 0.502 %, R squared 0.793
  EC90: 8.04 µM
Dengue virus type 2 [5]; EC90 CI (lower) 0.063 uM, EC90 CI (upper) 0.198 uM, Hill slope -1.33, Maximum measured 59.85 %, Minimum measured 0.021 %, R squared 0.933
  EC90: 3050 nM
Dengue virus type 2 [5]; EC90 CI (lower) 0.096 uM, EC90 CI (upper) 0.332 uM, Hill slope -1.394, Maximum measured 69.235 %, Minimum measured 0.073 %, R squared 0.818
  EC90: 4170 nM
Dengue virus type 2 [5]; EC90 CI (lower) 0.135 uM, EC90 CI (upper) 0.222 uM, Hill slope -1.408, Maximum measured 67.754 %, Minimum measured 0.12 %, R squared 0.962
  EC90: 3930 nM
Dengue virus type 2 [5]; EC90 CI (lower) 0.182 uM, EC90 CI (upper) 0.848 uM, Hill slope -1.407, Maximum measured 79.293 %, Minimum measured 0.097 %, R squared 0.879
  EC90: 8930 nM
Dengue virus type 2 [5]; EC90 CI (lower) 0.301 uM, EC90 CI (upper) 0.481 uM, Hill slope -1.99, Maximum measured 82.418 %, Minimum measured 0.182 %, R squared 0.957
  EC90: 3460 nM
Dengue virus type 2 [5]; EC90 CI (lower) 0.335 uM, EC90 CI (upper) 2.73 uM, Hill slope -2.159, Maximum measured 105.079 %, Minimum measured 6.932 %, R squared 0.477
  EC90: 7320 nM
Dengue virus type 2 [5]; EC90 CI (lower) 0.344 uM, EC90 CI (upper) 0.572 uM, Hill slope -2.092, Maximum measured 82.86 %, Minimum measured 0.014 %, R squared 0.949
  EC90: 3620 nM
Dengue virus type 2 [5]; EC90 CI (lower) 0.345 uM, EC90 CI (upper) 0.574 uM, Hill slope -1.668, Maximum measured 91.855 %, Minimum measured 0.191 %, R squared 0.984
  EC90: 6210 nM
Dengue virus type 2 [5]; EC90 CI (lower) 0.345 uM, EC90 CI (upper) 1.174 uM, Hill slope -1.957, Maximum measured 94.468 %, Minimum measured 0.047 %, R squared 0.91
  EC90: 6020 nM
Dengue virus type 2 [5]; EC90 CI (lower) 0.37 uM, EC90 CI (upper) 0.571 uM, Hill slope -1.792, Maximum measured 85.803 %, Minimum measured 0.04 %, R squared 0.97
  EC90: 5340 nM
Dengue virus type 2 [5]; EC90 CI (lower) 0.614 uM, EC90 CI (upper) 2.492 uM, Hill slope -4.433, Maximum measured 159.506 %, Minimum measured 0.037 %, R squared 0.838
  EC90: 3330 nM
Dengue virus type 2 [5]; EC90 CI (lower) 0.95 uM, EC90 CI (upper) 1.728 uM, Hill slope -2.215, Maximum measured 94.435 %, Minimum measured 0.459 %, R squared 0.976
  EC90: 9320 nM
Dengue virus type 2 [5]; EC90 CI (lower) 1.094 uM, EC90 CI (upper) 1.586 uM, Hill slope -2.299, Maximum measured 103.071 %, Minimum measured 0.093 %, R squared 0.991
  EC90: 8910 nM
Dengue virus type 2 [5]; EC90 CI (lower) 1.321 uM, EC90 CI (upper) 1.732 uM, Hill slope -3.141, Maximum measured 106.546 %, Minimum measured 0.058 %, R squared 0.995
  EC90: 6130 nM
Dengue virus type 2 [5]; EC90 CI (lower) 1.689 uM, EC90 CI (upper) 2.244 uM, Hill slope -3.785, Maximum measured 107.412 %, Minimum measured 0.007 %, R squared 0.985
  EC90: 6210 nM
Dengue virus type 2 [5]; EC90 CI (lower) […], EC90 CI (upper) 1.65 uM, Hill slope -1.956, Maximum measured 86.89 %, Minimum measured 0.152 %, R squared 0.926
  EC90: 9090 nM
